Experimental data as given in patent US8394971B2, “Indole derivatives as selective androgen receptor modulators (SARMS)” (Janssen Pharmaceutica N.V., priority 2004, dated 2013).
“And” between values parts separate entries of the source, which are not always exact repeats. Equal values may be shown once.

Columns and labels:
[1] = system: testosterone-enhanced ventral prostate and seminal vesicle weights in castrated male Sprague Dawley rats; test: Ventral Prostate and Seminal Vesicle Weight In Vivo Assay; parameters: species or system rat; settings: immature castrated rats; once daily for five days, usually orally at 40 mg/kg, with testosterone propionate 2 mg/kg s.c.
Procedure, shortened: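 Immature (~50 g) castrated Sprague Dawley rats dosed once daily for five days with compound (usually oral, 40 mg/kg, cyclodextrin or methylcellulose vehicle) plus testosterone propionate 2 mg/kg s.c. Wet ventral prostate and seminal vesicle weights taken on day six; activity judged by prostate weight or body-weight-adjusted % inhibition.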

[2] = biological target: T1, androgen receptor (adenovirus AdEasy+rAR in COS-7 cells) (Rattus norvegicus, UniProt P15207); test: COS-7 Whole-Cell Androgen Receptor Binding Assay, Adenovirus Transduction; settings: COS binding; for % Inhibition / inhibition at 3 µM: 3000 nM unless otherwise noted
T1 construct: expressed in transfected cells
T1 sequence (P15207 1-902): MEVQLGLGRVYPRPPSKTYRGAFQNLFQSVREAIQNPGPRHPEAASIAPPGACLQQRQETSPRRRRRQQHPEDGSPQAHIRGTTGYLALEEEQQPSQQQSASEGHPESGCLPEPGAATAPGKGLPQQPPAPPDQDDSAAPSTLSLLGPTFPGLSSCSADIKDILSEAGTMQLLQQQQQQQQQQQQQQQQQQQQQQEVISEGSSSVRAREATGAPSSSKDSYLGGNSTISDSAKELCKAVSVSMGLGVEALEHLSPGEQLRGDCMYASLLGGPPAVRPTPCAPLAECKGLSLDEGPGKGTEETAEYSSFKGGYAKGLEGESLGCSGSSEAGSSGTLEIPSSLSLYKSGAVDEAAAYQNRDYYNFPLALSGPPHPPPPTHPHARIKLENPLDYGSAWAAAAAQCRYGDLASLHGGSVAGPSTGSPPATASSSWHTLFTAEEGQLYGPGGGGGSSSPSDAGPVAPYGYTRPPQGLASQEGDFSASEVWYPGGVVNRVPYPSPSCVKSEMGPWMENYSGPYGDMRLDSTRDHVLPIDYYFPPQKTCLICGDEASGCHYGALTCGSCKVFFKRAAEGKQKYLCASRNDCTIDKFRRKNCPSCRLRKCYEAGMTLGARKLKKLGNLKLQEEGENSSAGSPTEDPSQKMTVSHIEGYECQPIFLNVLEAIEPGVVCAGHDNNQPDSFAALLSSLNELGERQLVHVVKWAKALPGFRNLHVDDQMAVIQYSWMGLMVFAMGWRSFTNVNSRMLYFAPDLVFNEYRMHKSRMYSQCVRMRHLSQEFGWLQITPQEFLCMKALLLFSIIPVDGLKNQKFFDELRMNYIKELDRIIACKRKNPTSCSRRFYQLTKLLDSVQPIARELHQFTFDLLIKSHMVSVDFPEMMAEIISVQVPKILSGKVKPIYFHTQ
Description: COS-7 cells were plated in 96-well plates at 20,000 cells per well, in a solution of DMEM/F12 (GIBCO) containing 10% (v/v) charcoal-treated fetal bovine serum (Hyclone) and lacking phenol red. The cells were then incubated overnight at 37° C. in 5% (v/v) humidified CO2.
Test compound solutions were prepared by diluting the test compound in 100% (v/v) DMSO, if necessary.
Next, 1 mL of DMEM/F12 lacking phenol red was pipetted into each of the wells of a 2-mL 96-well assay block. […] The wells were carefully mixed by pipette.
In a 15 mL or 50 mL sterile centrifuge tube, a dilution in DMEM/F12 of the adenovirus AdEasy+rAR at a moi of 1:50 per well was prepared.
The medium was removed from the 96-well plates by inversion and the plates dried very briefly, inverted, on a sterile towel. As soon as possible after medium removal, 40 μL of the diluted test compound was added to each well, in duplicate. […] The plates were then incubated for 48 hours at 37° C. in 5% (v/v) humidified CO2.
The medium was removed from the above incubated plates by inversion and dried. Each well was then washed with 0.35 mL of 1×PBS. The PBS was then removed from the plates by inversion and the plates dried.
To each well was then added 50 μL of 0.5% (v/v) Triton X-100 (Sigma) in 1×PBS and the plates placed on a rotary shaker for 5 min. The contents of each well were then transferred to an OptiPlate-96 (Packard) scintillation plate. To each well was then added 0.2 mL of Microscint-20 (Packard) and the wells counted on a TopCount (Packard).
[…] Counts per well were measured and percents of inhibition determined. […] Counts per well were measured and IC50s determined by linear regression.

[3] = biological target: T2, androgen receptor (adenovirus AdEasy+rAR in L929 cells) (Rattus norvegicus, UniProt P15207); test: L929 Androgen Receptor Functional Assay, Adenovirus Transduction; format: cell-based; settings: for inhibition at 3 µM: L929, L929 antagonist testing with R1881; for % Activity: L929 agonist testing
T2 construct: expressed in transfected cells
T2 sequence (P15207 1-902): T1 sequence (P15207 1-902)
Procedure, shortened: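 Luminescent reporter readout after 48 h at 37 °C: rat AR delivered by adenovirus (AdEasy+rAR, moi 1:500) into L929 cells grown without phenol red in charcoal-treated serum. Antagonist wells also received R1881 (2.5× dilution at 2.5 nM).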

SMILES	active / inactive (inhibition of testosterone-enhanced prostate weight) [1]	% Inhibition [2]	inhibition at 3 µM ([3]; 3000 nM)	% Activity ([3]; 3000 nM)	% Activity ([3]; @ 8000 nM)	inhibition at 3 µM [2]	IC50 ([2]; read-out: IC50)	% Activity ([3]; 3000 nM, 3 µM)
CCSCC(C)(O)c1cc2cc(C#N)c(C(F)(F)F)cc2[nH]1 (single isomer, unassigned) [Compound #217, 2-(2-Ethylsulfanyl-1-hydroxy-1-methyl-ethyl)-6-trifluoromethyl-1H-indole-5-carbonitrile]	active	38% and 69%	87%	5%	0 @ 8000 nM %			
CN(C)c1ccccc1SCC(C)(O)c1cc2cc(Cl)c(C(F)(F)F)cc2[nH]1 (stereo not shown) [compound 127]	inactive	41% and 74%		−5%				
CC[S+]([O-])CC(C)(O)c1[nH]c2cc(C(F)(F)F)c(C#N)cc2c1C (stereo not shown) [compound 252]	active		65%	1%		68%	> 3 µM	
CC(O)(CSC1CCCC1)c1cc2cc([N+](=O)[O-])c(C(F)(F)F)cc2[nH]1 (stereo not shown) [compound 173]	inactive			2%		17%		
CC(O)(CSCC(F)(F)F)c1[nH]c2cc(C(F)(F)F)c([N+](=O)[O-])cc2c1I (stereo not shown) [compound 213]	active				−1 @ 8000 nM %	71%		
CCSCC(C)(O)c1[nH]c2cc(C(F)(F)F)c(C#N)cc2c1C (single isomer, unassigned) [Compound #234, 2-(2-Ethylsulfanyl-1-hydroxy-1-methyl-ethyl)-3-methyl-6-trifluoromethyl-1H-indole-5-carbonitrile]	inactive	71%						−1%
CCSCC(C)(OC)c1cc2cc(C#N)c(C(F)(F)F)cc2n1C (stereo not shown) [compound 235]	inactive			3%		78%		
COc1ccc(SCC(C)(O)c2cc3cc(Cl)c(C(F)(F)F)cc3[nH]2)cc1 (stereo not shown) [compound 131]	inactive			−5%		84%		
CC(O)(CSc1ccc(N)cc1)c1cc2cc(Cl)c(C(F)(F)F)cc2[nH]1 (stereo not shown) [compound 104]	inactive			9%		94%		
CCSCC(C)(O)c1cc2cc([N+](=O)[O-])c(C(F)(F)F)cc2[nH]1 (racemic) [compound 142]	active	90%	78%					0%
CCC(O)(CS(=O)(=O)CC(F)(F)F)c1[nH]c2cc(C(F)(F)F)c([N+](=O)[O-])cc2c1Cl (stereo not shown) [compound 199]	inactive			2%		82%		
CCSCC(C)(O)c1cc2cc([N+](=O)[O-])c(C(F)(F)F)cc2n1C (single isomer, unassigned) [compound 231]	active	78%				73%		0% and −1%
CC(O)(CSCC(F)(F)F)c1cc2cc([N+](=O)[O-])c(C(F)(F)F)cc2[nH]1 (stereo not shown) [compound 201]	inactive	86%						2%
CCS(=O)(=O)CC(C)(O)c1[nH]c2cc(C(F)(F)F)c(C#N)cc2c1C (single isomer, unassigned) [Compound #251, 2-(2-Ethanesulfonyl-1-hydroxy-1-methyl-ethyl)-3-methyl-6-trifluoromethyl-1H-indole-5-carbonitrile]	active	85%	90%	−1%				
CC(C)SCC(C)(O)c1cc2cc([N+](=O)[O-])c(C(F)(F)F)cc2[nH]1 (stereo not shown) [compound 164]	inactive			2%		68%		
CCSCC(C)(O)c1cc2cc([N+](=O)[O-])c(C(F)(F)F)cc2n1S(C)(=O)=O (stereo not shown) [compound 141]	inactive			0%		42%		
CC(O)(CS(=O)(=O)c1ccc(N)cc1)c1cc2cc(Cl)c(C(F)(F)F)cc2[nH]1 (stereo not shown) [compound 118]	inactive				−2 @ 8000 nM %	62%		
CCSCC(C)(O)c1cc2cc(C#N)c(C(F)(F)F)cc2n1C (stereo not shown) [compound 236]	active			2%		83%		
CC(O)(CSCc1cccs1)c1cc2cc([N+](=O)[O-])c(C(F)(F)F)cc2[nH]1 (stereo not shown) [compound 197]	inactive			2%		86%		
CC(O)(CSCC(F)(F)F)c1cc2cc(F)c(C(F)(F)F)cc2[nH]1 (stereo not shown) [compound 189]	inactive			3%		100%		
CCC(O)(CS(=O)(=O)CC)c1cc2cc([N+](=O)[O-])c(C(F)(F)F)cc2[nH]1 (stereo not shown) [compound 176]	active			3%		75%		
CC(O)(CCS(C)(=O)=O)c1cc2cc([N+](=O)[O-])c(C(F)(F)F)cc2[nH]1 (stereo not shown) [compound 49]	inactive			2%		30%		
C[S+]([O-])CCC(C)(O)c1cc2cc([N+](=O)[O-])c(C(F)(F)F)cc2[nH]1 (mixture of isomers) [compound 50]	inactive	7%		2%				
CCSCC(C)(O)c1cc2cc(F)c(Cl)cc2[nH]1 (racemic) [compound 206]	active	−40%		5%				
CCC(O)(CSCC(F)(F)F)c1cc2cc([N+](=O)[O-])c(C(F)(F)F)cc2[nH]1 (stereo not shown) [compound 185]	active			2%		92%		
CCC(O)(CSCC(F)(F)F)c1cc2cc(Cl)c(C(F)(F)F)cc2[nH]1 (stereo not shown) [compound 192]	active			8%		86%		
CCC(O)(CS(=O)(=O)CC(F)(F)F)c1cc2cc([N+](=O)[O-])c(C(F)(F)F)cc2[nH]1 (stereo not shown) [compound 191]	active			2%		65%		
